The values that follow come from US20210299076A1, “AMINO ACID FORMULATIONS AND USES THEREOF” (University of Florida Research Foundation, Incorporated, priority 2012, published 2021).

Structures are written as SMILES.

Test [1] relates to intracellular cAMP in ileal epithelial cells. In words: Colorimetric intracellular cAMP measurement in ileal villus and crypt cells. The format is cell-based, mouse. The note with it: villus cells. Here is the method:
Freshly isolated mucosal scrapings of ileal epithelial cells are washed three times in Ringer's solution containing 1.2 mM Ca^2+ at 37° C. […] Cells are treated with 0.1 M HCl to stop endogenous phosphodiesterase activity. The lysates are then used for cAMP assay using cAMP direct immunoassay kit (Calbiochem, USA). The quantitative assay of cAMP uses a polyclonal antibody to cAMP that binds to cAMP in samples in a competitive manner. After a simultaneous incubation at room temperature, the excess reagents are washed away and substrates are added. After a short incubation time, the reaction is stopped and the yellow color generated is read at 405 nm. The intensity of the color is inversely proportional to the concentration of cAMP in standards and samples. cAMP levels are standardized to protein levels from respective fractions and expressed in pmol (mg protein)^−1. Forskolin treated cells are used as a positive control. Glucose and forskolin treated cells are incubated for 45 minutes. All the assays are performed in triplicate and repeated until n=4 different mice.

The target of the next test is T1, SGLT1 (Mus musculus, UniProt Q8C3K6).
T1 construct: from tissue; host or cells: ileal mucosa of NIH Swiss mice
T1 sequence (Q8C3K6 1-665): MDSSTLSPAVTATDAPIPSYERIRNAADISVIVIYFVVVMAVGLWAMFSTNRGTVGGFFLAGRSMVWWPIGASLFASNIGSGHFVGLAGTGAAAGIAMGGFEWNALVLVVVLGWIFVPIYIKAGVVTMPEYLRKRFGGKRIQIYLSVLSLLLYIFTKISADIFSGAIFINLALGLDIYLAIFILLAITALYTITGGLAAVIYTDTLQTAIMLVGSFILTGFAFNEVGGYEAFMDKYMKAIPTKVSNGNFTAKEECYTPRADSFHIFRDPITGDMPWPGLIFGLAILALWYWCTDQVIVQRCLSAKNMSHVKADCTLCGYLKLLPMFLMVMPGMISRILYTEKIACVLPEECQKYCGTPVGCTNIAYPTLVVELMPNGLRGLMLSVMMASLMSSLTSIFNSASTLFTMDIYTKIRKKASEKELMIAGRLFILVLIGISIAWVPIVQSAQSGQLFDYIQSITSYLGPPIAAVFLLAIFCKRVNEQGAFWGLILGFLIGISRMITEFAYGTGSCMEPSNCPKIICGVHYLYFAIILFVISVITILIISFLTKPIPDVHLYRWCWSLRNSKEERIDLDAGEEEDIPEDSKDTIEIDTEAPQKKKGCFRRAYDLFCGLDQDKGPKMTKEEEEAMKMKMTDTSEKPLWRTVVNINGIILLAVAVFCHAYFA
The test can be described thus: Saturation kinetics of Na+-coupled glucose / 3-OMG transport (Isc, Ussing chamber, ileal sheets). The format is cell-based. An excerpt:
Normally fed, 8-week-old, male NIH Swiss mice are sacrificed by CO2 inhalation, followed by cervical dislocation. The small intestine is gently removed, and the segment is washed and flushed in ice-cold Ringer's solution. Then the mucosa is separated from the serosa and the muscular layers by striping through the submucosal plane as previously described (Zhang et al. (2007) J Physiol 581(3):1221-1233). Following exsanguinations, ileal mucosa is obtained from a 10 cm segment close to the caecum. All experiments are approved by the University of Florida Institutional Animal Care and Use Committee.
Ion transport studies are performed on ileal sheets. Tissues are then mounted in between the two halves of an Ussing type-Lucite chamber with 0.3 cm^−2 exposed surface areas (P2304, Physiologic Instruments, San Diego, Calif., USA). […] The basal short-circuit current (Isc) and the corresponding conductance (G) are recorded using a computer controlled voltage/current clamp device (VCC MC-8, Physiologic Instruments).
Tissues paired with similar conductance and current are treated with or without 100 μM H-89 (Santa Cruz Biotechnology, Inc, Santa Cruz, Calif.), an irreversible protein kinase A (PKA) inhibitor. […] Saturation kinetic constant is calculated for the corresponding Km and Vmax for treated and untreated tissues. […]

For `CO[C@@H]([C@H](O)[C@H](O)CO)[C@@H](O)C=O` [Formulation 3-OMG, 3-O-methylglucose], in test [1] (3-OMG 6 mM, P<0.01), the “Intracellular cAMP level compared to 6 mM glucose” value is recorded as “significantly higher”. For the same compound, the “Intracellular cAMP level” value in test [1] (3-OMG 0.6 and 6 mM, 45 minutes) is “significant increase”. For the same compound, the Vmax on SGLT1 (Table 1, no PKA inhibitor, n = 8 tissues) worked out at 2.7 ± 0.1; at SGLT1 (Table 1, with H-89, n = 8 tissues) it was 1.4 ± 0.1.
